# Laboratory results taken from patent US20240025862A1, “SUBSTITUTED N-PHENYLURACILS AND SALTS THEREOF, AND USE THEREOF AS HERBICIDAL ACTIVE SUBSTANCES” (Bayer Aktiengesellschaft, priority 2020, published 2024).
# Columns and labels:
# Assay type in all cases: in vivo
# [1] = test system: Abutilon theophrasti (ABUTH); assay: Post-emergence herbicidal action, greenhouse pot test; details: Abutilon theophrasti, 504 h, rated visually after about 3 weeks vs untreated controls, 100% = plants have died
# Method in brief: (§1)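 Activity was scored by eye about 3 weeks after treatment against untreated plants, where 100% means dead plants and 0% means no difference. Plants at the one-leaf stage received a foliar spray of WP or EC formulations in water plus 0.5% additive (600 l/ha, up to 20 g/ha). Plants were grown in sandy loam pots in a greenhouse for 2–3 weeks before spraying.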
# [2] = test system: Amaranthus retroflexus (AMARE); assay: as above; details: Amaranthus retroflexus, 504 h, rated visually after about 3 weeks vs untreated controls, 100% = plants have died
# Method in brief: as §1
# [3] = test system: Pharbitis purpurea (PHBPU); assay: as above; details: Ipomoea purpurea, 504 h, read-out: Post-emergence action against PHBPU in %
# Method in brief: as §1
# [4] = test system: Polygonum convolvulus (POLCO); assay: as above; details: Fallopia convolvulus, 504 h, read-out: Post-emergence action against POLCO in %
# Method in brief: as §1
# Stellaria media (STEME) = assay: as above
# Method in brief: as §1
# Veronica persica (VERPE) = assay: as above; details: Veronica persica, 504 h, read-out: Post-emergence action against VERPE
# Method in brief: as §1
# Viola tricolor (VIOTR) = assay: as above; details: Viola tricolor, 504 h, read-out: Post-emergence action against VIOTR
# Method in brief: as §1
# [5] = test system: Alopecurus myosuroides (ALOMY); assay: Post-emergence herbicidal action, greenhouse pot test (also comparative test C); details: Alopecurus myosuroides, 504 h, 20 g/ha, rated visually after about 3 weeks vs untreated controls, 100% = plants have died, read-out: Post-emergence action at 20 g/ha against ALOMY in %
# Method in brief: (§2)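 Greenhouse pot plants in sandy loam were sprayed post-emergence at the one-leaf stage (2–3 weeks after sowing) with WP or EC formulations plus 0.5% additive at 600 l/ha water. Activity was rated visually after about 3 weeks versus untreated controls (100% = dead, 0% = like control); rates were 20 g/ha or less, and 5 g/ha or less in the comparative test.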
# [6] = test system: Echinochloa crus-galli (ECHCG); assay: as above; details: Echinochloa crus-galli, 504 h, dosage 20 g/ha, read-out: Post-emergence action against ECHCG in %
# Method in brief: as §2
# [7] = test system: Matricaria inodora (MATIN); assay: as above; details: Tripleurospermum inodorum, 504 h, read-out: Post-emergence action against MATIN in %
# Method in brief: as §2
# Setaria viridis (SETVI) = assay: as above; details: Setaria viridis, 504 h
# Method in brief: as §2
# Glycine max (GLXMA) = assay: Post-emergence crop plant compatibility, greenhouse pot test
# Method in brief: (§3)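 Greenhouse pot test; post-emergence foliar spray at one-leaf stage, WP or EC in water + 0.5% additive, 600 l/ha. Visual rating after ~3 wk, % relative to untreated (0–100%).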
# [8] = test system: Triticum aestivum (TRZAS); assay: as above; details: vs untreated controls
# Method in brief: as §3
# Zea mays (ZEAMX) = assay: as above; details: vs untreated controls
# Method in brief: as §3
# Oryza sativa (ORYSA) = assay: Post-emergence crop plant compatibility, greenhouse pot test (also comparative test C); details: vs untreated controls
# Method in brief: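 Visual damage versus untreated plants (0% = like control, 100% = plants died) was scored about 3 weeks after a post-emergence spray in greenhouse pots. Treatment: one-leaf stage, WP or EC in water at 600 l/ha with 0.5% additive; a/b/c mark different dosages on the same crop.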
structure (smiles),measurement,setting,value
"COCCOC(=O)C(C)Oc1ccccc1Sc1cc(-n2c(=O)cc(C(F)(F)F)n(C)c2=O)c(F)cc1Cl (racemic) [I.2-1, 2-Methoxyethyl (2RS)-2-[2-({2-chloro-4-fluoro-5-[3-methyl-2,6-dioxo-4-(trifluoromethyl)-3,6-dihydropyrimidin-1(2H)-yl]phenyl}sulfanyl)phenoxy]propanoate]",pest or weed control at 5 g/ha,"[1]; 5 g/ha, read-out: Post-emergence action at 5 g/ha against ABUTH in %",100%
same,pest or weed control at 20 g/ha,"[1]; 20 g/ha, read-out: Post-emergence action at 20 g/ha against ABUTH in %",100%
same,pest or weed control at 1.25 g/ha,"[2]; 1.25 g/ha, read-out: Post-emergence action at 1.25 g/ha against AMARE in %",100%
same,pest or weed control at 20 g/ha,"[2]; 20 g/ha, read-out: Post-emergence action at 20 g/ha against AMARE in %",100%
same,pest or weed control at 1.25 g/ha,[3]; dosage 1.25 g/ha,100%
same,pest or weed control at 5 g/ha,[3]; dosage 5 g/ha,100%
same,pest or weed control at 20 g/ha,[3]; dosage 20 g/ha,100%
same,pest or weed control at 5 g/ha,[4]; dosage 5 g/ha,80%
same,pest or weed control at 20 g/ha,[4]; dosage 20 g/ha,100%
same,Post-emergence action against STEME,Stellaria media (STEME); 1.25 g/ha,80%
same,Post-emergence action against STEME,Stellaria media (STEME); 5 g/ha,100%
same,Post-emergence action against STEME,Stellaria media (STEME); 20 g/ha,100%
same,pest or weed control at 1.25 g/ha,Veronica persica (VERPE); 1.25 g/ha,90%
same,pest or weed control at 5 g/ha,Veronica persica (VERPE); 5 g/ha,100%
same,pest or weed control at 20 g/ha,Veronica persica (VERPE); 20 g/ha,100%
same,pest or weed control at 1.25 g/ha,Viola tricolor (VIOTR); 1.25 g/ha,100%
same,pest or weed control at 5 g/ha,Viola tricolor (VIOTR); 5 g/ha,100%
same,pest or weed control at 20 g/ha,Viola tricolor (VIOTR); 20 g/ha,100%
same,pest or weed control at 20 g/ha,[5],80%
same,pest or weed control at 20 g/ha,[6],100%
same,pest or weed control at 5 g/ha,[7]; dosage 5 g/ha,80%
same,pest or weed control at 20 g/ha,[7]; dosage 20 g/ha,100%
same,pest or weed control at 20 g/ha,"Setaria viridis (SETVI); 20 g/ha, read-out: Post-emergence action against SETVI",100%
same,pest or weed control at 1.25 g/ha,"Setaria viridis (SETVI); dosage 1.25 g/ha, read-out: Post-emergence action against SETVI in %",100%
same,pest or weed control at 5 g/ha,"Setaria viridis (SETVI); dosage 5 g/ha, read-out: Post-emergence action against SETVI in %",100%
same,Post-emergence action against GLXMA in %,Glycine max (GLXMA); 1.25 g/ha,0%
same,Post-emergence action against GLXMA in %,Glycine max (GLXMA); 5 g/ha,10%
same,Post-emergence action against GLXMA in %,Glycine max (GLXMA); 20 g/ha,20%
same,Post-emergence action against TRZAS (crop plant compatibility),[8]; 1.25 g/ha,20%
same,Post-emergence action against TRZAS (crop plant compatibility),[8]; 5 g/ha,20%
same,Post-emergence action against ZEAMX (crop plant compatibility),Zea mays (ZEAMX); 1.25 g/ha,10%
same,Post-emergence action against ZEAMX (crop plant compatibility),Zea mays (ZEAMX); 5 g/ha,10%
same,Post-emergence action against ZEAMX (crop plant compatibility),Zea mays (ZEAMX); 20 g/ha,20%
same,Post-emergence action against ORYSA (crop plant compatibility),Oryza sativa (ORYSA); 1.25 g/ha,10%
same,Post-emergence action against ORYSA (crop plant compatibility),Oryza sativa (ORYSA); 5 g/ha,10%
